44 molecules from US5776742A, “Aldehyde dehydrogenase enzyme” (Roche Vitamins Inc., priority 1996, dated 1998) can be followed below.

Where “and” joins values, the source holds several entries; their conditions need not be identical. Equal entries are not always repeated. Entries after “also recorded” stand apart in the source; their conditions may differ. Where two headings read alike, the source gives them in different places.

In assay [1] the target is T1, aldehyde dehydrogenase (ADH) (Ketogulonicigenium vulgare, UniProt F9Y7W8).
T1 sequence (F9Y7W8 1-429): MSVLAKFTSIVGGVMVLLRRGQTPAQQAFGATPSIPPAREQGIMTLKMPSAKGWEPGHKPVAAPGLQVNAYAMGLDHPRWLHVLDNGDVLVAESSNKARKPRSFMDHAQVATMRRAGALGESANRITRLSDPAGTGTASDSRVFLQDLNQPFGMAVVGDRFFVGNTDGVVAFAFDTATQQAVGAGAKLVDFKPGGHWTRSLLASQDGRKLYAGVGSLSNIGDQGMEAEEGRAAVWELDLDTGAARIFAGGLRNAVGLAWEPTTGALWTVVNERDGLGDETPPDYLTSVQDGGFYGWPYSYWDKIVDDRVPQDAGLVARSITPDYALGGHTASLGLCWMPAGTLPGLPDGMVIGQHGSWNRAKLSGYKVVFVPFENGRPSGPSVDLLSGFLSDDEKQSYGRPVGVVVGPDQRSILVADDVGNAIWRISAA
As to the kind of experiment: Effects of metal ions, enzyme inhibitors and PQQ on the activity of ADH. The format is biochemical, Gluconobacter oxydans DSM 4025 (FERM BP-3812). As to conditions: for inhibition at 1870 µM: read-out: inhibition of the activity.

The target in assay [2] is T1, aldehyde dehydrogenase (ADH). As to the kind of experiment: Electron acceptor suitability for L-sorbosone oxidation. It is filed as biochemical, Gluconobacter oxydans DSM 4025 (FERM BP-3812). The conditions noted are these: oxidation of L-sorbosone to 2-keto-L-gulonic acid.
Assay [3] has the same target. Nature of the assay: Substrate specificity of the ADH. The conditions noted are these: for activity at 100000 µM: read-out: Relative activity (%).
The mark [4] stands for this setting: read-out: Relative activity (%).
[5] abbreviates: compound 0.950 mM, None = 100, read-out: Relative activity (%).
Where [6] appears, read: compound 1.870 mM, None = 100, read-out: Relative activity (%).

Regarding `O.O.O.O.O.O.O.O=S(=O)([O-])[O-].[Mg+2]` [MgSO4.7H2 O], the “Relative activity (%)” value in assay [1] (metal 0.19 mM, None = 100) amounted to 79.3%; in assay [1] (metal 0.374 mM, None = 100), 39.9%. Turning to `O.O.O.O.O.O.O.O=S(=O)([O-])[O-].[Cu+2]` [CuSO4.7H2 O], the “Relative activity (%)” value in assay [1] (metal 0.19 mM, None = 100) came to 100%; in assay [1] (metal 0.374 mM, None = 100), 61.9%. Consider `O=O` [oxygen], for which the “suitability as electron acceptor (in words)” value (from here on “suitability”) in assay [2] is reported as “does not work; also recorded: not suitable”.

In the case of `OC[C@@H](O)[C@@H](O)[C@H](O)[C@@H](O)CO` [D-Sorbitol], the activity at 100000 µM in assay [3] came to 0%. Same read-out and setting: for `O=CC(=O)[C@@H](O)[C@H](O)[C@H](O)CO` [D-Glucosone] the value was 77.8%. cytochrome c: the “suitability” value in assay [2] was “oxidizes L-sorbosone to 2-keto-L-gulonic acid in the presence of electron acceptors”. Turning to `O=CC(=O)[C@@H](O)[C@H](O)[C@@H](O)CO` [L-Sorbosone], the activity at 100000 µM in assay [3] amounted to 100%. Take `[Mg+2]` [Mg^2+]: the “effect on the enzyme activity (in words)” value in assay [1] is given as “inhibited”.

Turning to `O.O.O.O.O.O.O.O=S(=O)([O-])[O-].[Zn+2]` [ZnSO4.7H2 O], the “Relative activity (%)” value in assay [1] (metal 0.374 mM, None = 100) came to 32.6%.

Take `[Zn+2]` [Zn^2+]: in assay [1], the “effect on the enzyme activity (in words)” value is “inhibited; also recorded: Inhibition”. Turning to `O=C(O)CN(CCN(CC(=O)O)CC(=O)O)CC(=O)O` [EDTA, ethylenediamine tetraacetic acid, reference compound], the “effect on the enzyme activity (in words)” value in assay [1] is given as “strongly inhibited; also recorded: Inhibition”. In assay [1] (setting [4]), the activity at 194 µM was determined as 3.8%, the activity at 480 µM was 2.6% and the activity at 980 µM came out at 1.6%. `[Ca+2].[Cl-].[Cl-]` [CaCl2]: in assay [1] (metal 0.0387 mM, None = 100), the “Relative activity (%)” value was 337%. `[Cl][Ti]([Cl])([Cl])[Cl]` [TiCl4]: the “Relative activity (%)” value in assay [1] (metal 0.19 mM, None = 100) stood at 100%; in assay [1] (metal 0.374 mM, None = 100) it was 80%. Consider `CC(C)O` [iso-Propanol], for which the activity at 100000 µM in assay [3] is 0%. For `O=C[C@@H](O)[C@@H](O)[C@H](O)[C@H](O)CO` [D-Mannose], the activity at 100000 µM in assay [3] turned out to be 62.2%. In the case of `O=C[C@H](O)[C@@H](O)[C@H](O)[C@H](O)CO` [D-Glucose], in assay [3], the “relative activity, times higher than that for L-sorbosone” value is listed as about 2 times and the activity at 100000 µM came to 189%.

With `[Cl-].[Cl-].[Zn+2]` [ZnCl2], the “Relative activity (%)” value is on record as 36.1% in assay [1] (metal 0.19 mM, None = 100) and 21.1% in assay [1] (metal 0.374 mM, None = 100). On to `O=C1C(Cl)=CC(=Nc2ccc(O)cc2)C=C1Cl`, for which the “suitability” value in assay [2] is given as “oxidizes L-sorbosone to 2-keto-L-gulonic acid in the presence of electron acceptors”. As to `NC(=O)c1ccc[n+]([C@@H]2O[C@H](COP(=O)([O-])OP(=O)(O)OC[C@H]3O[C@@H](n4cnc5c(N)ncnc54)[C@H](O)[C@@H]3O)[C@@H](O)[C@H]2O)c1` [nicotine amide adenine dinucleotide], the “suitability” value in assay [2] was “not suitable”. A word on the inhibition: it is the drop in the measured response relative to a control, in per cent. On to `CCN1C(=O)C=CC1=O` [N-Ethylmaleimide, reference compound], for which the inhibition at 1870 µM in assay [1] (1.87 mM) came to 24%. In assay [1] (setting [5]), the activity at 950 µM was 94.1%. Also, the activity at 1870 µM in assay [1] (setting [6]) is 76.5%.

With `[Fe+3]` [Fe^3+], the “effect on the enzyme activity (in words)” value in assay [1] was “inhibited”. Consider `[Cu+2]` [Cu^2+], for which, in assay [1], the “effect on the enzyme activity (in words)” value is “inhibited; also recorded: Inhibition”. For the molecule `O.O.O.O.O.O.O.O=[As]([O-])([O-])O.[Na+].[Na+]` [Na2 HAsO4.7H2 O, reference compound], the “Relative activity (%)” value in assay [1] (compound 0.950 mM, None = 100) amounted to 100%; in assay [1] (compound 1.870 mM, None = 100), 107.1%. Regarding `C[n+]1c2ccccc2nc2ccccc21` [phenazine methosulfate], the “suitability” value in assay [2] is “oxidizes L-sorbosone to 2-keto-L-gulonic acid in the presence of electron acceptors”. `O.O.O.O.O.O.[Cl][Cu][Cl]` [CuCl2.6H2 O]: the “Relative activity (%)” value in assay [1] (metal 0.0387 mM, None = 100) was 100%; in assay [1] (metal 0.19 mM, None = 100) it was 50%; in assay [1] (metal 0.374 mM, None = 100) it was 0%. As for `[Na+].[Na+].[O]=[Mo](=[O])([O-])[O-]` [Mo^6+], in assay [1], the “effect on the enzyme activity (in words)” value was “inhibited”. On to `O=C(CO)[C@@H](O)[C@H](O)[C@@H](O)CO` [L-Sorbose], for which the activity at 100000 µM in assay [3] was found to be 0%. As for `O=C(O)CI` [Monoiodoacetate, reference compound], in assay [1] (setting [4]), the activity at 950 µM stood at 93.7% and the activity at 1870 µM was 87.3%. Moreover, the inhibition at 1870 µM in assay [1] was determined as 13%. Regarding `O.O.O.O.O.O.O=S(=O)([O-])[O-].[Ni+2]` [NiSO4.6H2 O], in assay [1] (metal 0.375 mM, None = 100), the “Relative activity (%)” value turned out to be 17.6%. As to `[Ti+4]` [Ti^4+], the “effect on the enzyme activity (in words)” value in assay [1] was “inhibited”. Turning to `O.O.[Na+].[Na+].[O]=[Mo](=[O])([O-])[O-]` [Na2 MoO4.2H2 O], the “Relative activity (%)” value in assay [1] (metal 0.19 mM, None = 100) amounted to 69.7%; in assay [1] (metal 0.374 mM, None = 100), 42.1%. As for `CCCO` [n-Propanol], the activity at 100000 µM in assay [3] stood at 0%. As for `[Ca+2]` [Ca^2+], the “effect on the enzyme activity (in words)” value in assay [1] is on record as “Stimulator”. Turning to `O.O=S(=O)([O-])[O-].O=S(=O)([O-])[O-].O=S(=O)([O-])[O-].[Fe+3].[Fe+3]` [Fe2 (SO4)3.nH2 O], the “Relative activity (%)” value is 100% in assay [1] (metal 0.0387 mM, None = 100); 64.0% in assay [1] (metal 0.228 mM, None = 100); 44.9% in assay [1] (metal 0.374 mM, None = 100); 30.4% in assay [1] (metal 0.41 mM, None = 100).

Regarding `O=C(O)c1cc(C(=O)O)c2c(n1)C(=O)C(=O)c1cc(C(=O)O)[nH]c1-2` [PQQ, pyrroloquinoline quinone, reference compound], the “effect on the enzyme activity (in words)” value in assay [1] is on record as “Stimulator”. For the same molecule, in assay [1] (0.01 mM, read-out: stimulation of the activity), the activation at 10 µM was about 50%. For the same molecule, in assay [1] (compound 0.01 mM, None = 100, read-out: Relative activity (%)), the activity at 10 µM was 148%.

On to `NC(=O)c1ccc[n+]([C@@H]2O[C@H](COP(=O)([O-])OP(=O)(O)OC[C@H]3O[C@@H](n4cnc5c(N)ncnc54)[C@H](OP(=O)(O)O)[C@@H]3O)[C@@H](O)[C@H]2O)c1` [nicotine amide adenine dinucleotide phosphate], for which, in assay [2], the “suitability” value is on record as “not suitable”.

In the case of `O.O.O.O.O=[N+]([O-])[O-].O=[N+]([O-])[O-].[Ca+2]` [Ca(NO3)2.4H2 O], the “Relative activity (%)” value in assay [1] (metal 0.0387 mM, None = 100) was determined as 294%; in assay [1] (metal 0.19 mM, None = 100), 450%. On to `O=C(O)CF` [Sodium fluoroacetate, reference compound], for which the activity at 950 µM in assay [1] (setting [5]) is 118%. Moreover, in assay [1] (setting [6]), the activity at 1870 µM was 127%. Turning to `O=CC(O)CO` (racemic) [D,L-Glyceraldehyde], the activity at 100000 µM in assay [3] stood at 789%. Further, the “relative activity, times higher than that for L-sorbosone” value in assay [3] (substrate vs L-sorbosone) was “about 8 times”. In the case of `[F-].[Na+]` [Sodium fluoride, reference compound], the “Relative activity (%)” value in assay [1] is 100% and 105.8%. `O=C(CO)[C@@H](O)[C@H](O)[C@H](O)CO` [D-Fructose]: the activity at 100000 µM in assay [3] came out at 0%. As to `O=C[C@H](O)[C@H](O)[C@H](O)CO` [D-Ribose], the activity at 100000 µM in assay [3] was determined as 33.3%. Regarding `[Ni+2]` [Ni^2+], in assay [1], the “effect on the enzyme activity (in words)” value is on record as “inhibited; also recorded: Inhibition”.

As for `C=C[C@H]1C[N@@]2CC[C@H]1C[C@H]2[C@H](O)c1ccnc2ccc(OC)cc12` [Quinine, reference compound], the activity at 950 µM in assay [1] (setting [5]) worked out at 118%. In addition, in assay [1] (setting [6]), the activity at 1870 µM turned out to be 112%.
